These results are taken from patent US11999727B2 (Tango Therapeutics, Inc., priority 2020, dated 2024).

The test system of experiment [1] is HAP1 MTAP-deleted cell line. Put plainly: Viability assay, MTAP-deleted cell line. The following applies: Homo sapiens. The experiment is classed as cell-based. The source says:
Table 1 additionally indicates IC50 values in a viability assay for the MTAP-deleted cell line (column 10), indicating the effect of treatment with compound on cell survival.

Experiment [2] addresses T1, PRMT5 (Homo sapiens, UniProt O14744).
T1 construct: purchased Viva (custom protein)
Put plainly: PRMT5 biochemical IC50 assay with no cofactor. The settings on record: PRMT5, no cofactor. The source says: Table 1 indicates IC50 values (μM) against PRMT5 for exemplary compounds in the presence of SAM as cofactor, with no cofactor, and with MTA as cofactor, respectively (columns 4-6). […] Ki values can be calculated from the IC50 values as described in the Examples section. As detailed in the Examples section, for the assay performed in the presence of SAM, IC50=Ki×1.5 (Ki=IC50/1.5).

Experiment [3] concerns the target T1, PRMT5. Nature of the experiment: PRMT5 biochemical IC50 assay with SAM as cofactor. The settings on record: PRMT5, SAM as cofactor; read-out: SAM IC50.
Experiment [4] deals with HAP1 MTAP-intact cell line. Nature of the experiment: SDMA in-cell western assay, HAP1 MTAP-intact. The following applies: Homo sapiens. The experiment is classed as cell-based. In short, it runs like this: (§1)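 Isogenic HAP1 pair: the MTAP-intact line expresses endogenous MTAP, and the deleted line is MTAP-null. Symmetric dimethylarginine was detected by in-cell western and IC50 values derived for each line.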

In experiment [5] the test system is HAP1 MTAP-deleted cell line. Nature of the experiment: SDMA in-cell western assay, HAP1 MTAP-deleted. The class given is cell-based. The following applies: for IC50: Homo sapiens; for MTAP intact/deleted ratio: SDMA in-cell western. In a few lines:
as §1

Experiment [6] has as its target T1, PRMT5. Nature of the experiment: PRMT5 biochemical IC50 assay with MTA as cofactor. The following applies: PRMT5, MTA as cofactor; read-out: MTA IC50.
Setting [7] is: HAP1, viability assay, MTAP-deleted cell line, read-out: HAP1 MTAP deleted viability.
The mark [8] stands for this setting: read-out: No Cofactor/ rel IC50.
The mark [9] stands for this setting: HAP1, SDMA in-cell western, HAP1 MTAP-intact, read-out: MTAP HAP1 intact IC50.
The mark [10] stands for this setting: HAP1, SDMA in-cell western, HAP1 MTAP-deleted, read-out: HAP 1 MTAP deleted IC50.
[11] abbreviates: IC50 ratio HAP1 MTAP-intact / HAP1 MTAP-deleted.
[12] abbreviates: HAP1, SDMA in-cell western, HAP1 MTAP-deleted, read-out: HAP1 MTAP deleted IC50.
[13] abbreviates: HAP1, viability IC50, MTAP-deleted cell line, read-out: HAP1 MTAP deleted viability.
[14] abbreviates: IC50 ratio HAP1 MTAP-intact vs HAP1 MTAP-deleted.
Where [15] appears, read: HAP1, viability, HAP1 MTAP-deleted cell line, read-out: HAP1 MTAP deleted viability.

Read-outs that look alike come from different tables or passages of the source.

T1 sequence (O14744 whole entry): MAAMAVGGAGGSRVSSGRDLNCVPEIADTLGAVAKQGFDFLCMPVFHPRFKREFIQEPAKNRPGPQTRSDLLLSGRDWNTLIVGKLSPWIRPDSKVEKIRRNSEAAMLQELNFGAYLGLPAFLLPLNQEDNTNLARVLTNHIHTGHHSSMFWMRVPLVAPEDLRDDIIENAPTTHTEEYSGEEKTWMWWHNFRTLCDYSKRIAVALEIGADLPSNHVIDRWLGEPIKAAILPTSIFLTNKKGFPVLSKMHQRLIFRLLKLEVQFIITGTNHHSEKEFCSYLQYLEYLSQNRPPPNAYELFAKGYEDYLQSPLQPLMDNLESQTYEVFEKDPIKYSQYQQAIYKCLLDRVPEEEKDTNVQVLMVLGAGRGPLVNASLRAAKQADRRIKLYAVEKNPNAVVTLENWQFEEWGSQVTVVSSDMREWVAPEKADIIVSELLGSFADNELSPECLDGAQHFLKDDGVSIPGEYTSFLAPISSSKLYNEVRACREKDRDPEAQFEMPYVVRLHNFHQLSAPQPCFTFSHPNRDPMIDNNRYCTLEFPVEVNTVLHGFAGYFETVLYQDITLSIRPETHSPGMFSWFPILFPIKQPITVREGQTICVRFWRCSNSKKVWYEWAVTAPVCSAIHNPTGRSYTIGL
T1 sequence (Q9BQA1 whole entry partner): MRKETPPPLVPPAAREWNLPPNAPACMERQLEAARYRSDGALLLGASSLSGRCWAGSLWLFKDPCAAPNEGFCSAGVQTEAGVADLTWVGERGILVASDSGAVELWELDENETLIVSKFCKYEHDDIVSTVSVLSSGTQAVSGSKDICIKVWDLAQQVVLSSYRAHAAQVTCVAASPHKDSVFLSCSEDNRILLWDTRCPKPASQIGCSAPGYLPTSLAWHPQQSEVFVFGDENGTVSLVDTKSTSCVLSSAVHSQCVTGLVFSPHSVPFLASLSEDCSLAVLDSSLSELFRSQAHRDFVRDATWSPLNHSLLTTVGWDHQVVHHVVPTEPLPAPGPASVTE

For the compound `NC(=O)c1cncc(NC(=O)C(=O)N2CCCCC2C2CCCCC2)c1` (stereo not drawn) [Compound 101, 5-(2-(2-cyclohexylpiperidin-1-yl)-2-oxoacetamido)nicotinamide], the IC50 is above 10000 nM in experiment [1] (setting [7]); 50 to 500 nM at PRMT5 [2] (setting [8]); 50 to 500 nM at PRMT5 [3]; above 1000 nM in experiment [4] (setting [9]); below 100 nM in experiment [5] (setting [10]); below 50 nM at PRMT5 [6]. Also, the “MTAP intact/deleted ratio” value in experiment [5] (setting [11]) is on record as “A (an IC50 ratio greater than or equal to 10 fold)”.

As for `C[C@@H]1CC[C@@H](c2cncc(-n3cccn3)c2)N(C(=O)C(=O)Nc2cncc(C(N)=O)c2)C1` (racemic) [Compound 226, rac-5-{2-[(2R,5S)-5-Methyl-2-[5-(1H-pyrazol-1-yl)pyridin-3-yl]piperidin-1-yl]-2-oxoacetamido}pyridine-3-carboxamide], the IC50 in experiment [1] (setting [7]) is above 10000 nM; on PRMT5 [2] (read-out: No Cofactor/rel IC50) it was above 500 nM; on PRMT5 [3], 50 to 500 nM; in experiment [4] (setting [9]), above 1000 nM; in experiment [5] (setting [12]), above 1000 nM; on PRMT5 [6], 50 to 500 nM. The MTAP intact/deleted ratio result in experiment [5] (setting [11]) is recorded as “C (an IC50 ratio of less than 3 fold)”.

With `COc1cccc([C@@H]2CC[C@@H](C)CN2C(=O)C(=O)Nc2cncc(C)c2)c1` (racemic) [Compound 28, rac-2-((2R,5S)-2-(3-methoxyphenyl)-5-methylpiperidin-1-yl)-N-(5-methylpyridin-3-yl)-2-oxoacetamide], the IC50 in experiment [1] (setting [7]) is above 10000 nM; at PRMT5 [2] (setting [8]), 50 to 500 nM; at PRMT5 [3] it was 50 to 500 nM; in experiment [4] (setting [9]) it was above 1000 nM; in experiment [5] (setting [10]), above 1000 nM; on PRMT5 [6], 50 to 500 nM. Further, in experiment [5] (setting [11]), the “MTAP intact/deleted ratio” value is “C (an IC50 ratio of less than 3 fold)”.

`Cc1cc(NC(=O)C(=O)N2C[C@H](C)CC[C@H]2c2ccc3c(c2)CCC(=O)N3)cnc1C(F)F` (racemic) [Compound 641, N-[6-(Difluoromethyl)-5-methyl-3-pyridyl]-2-[(2S,5R)-5-methyl-2-(2-oxo-3,4-dihydro-1H-quinolin-6-yl)-1-piperidyl]-2-oxo-acetamide]: the IC50 in experiment [1] (setting [13]) was 1000 to 10000 nM; on PRMT5 [2] (read-out: No Cofactor/rel IC50) it was 50 to 500 nM; at PRMT5 [3], 50 to 500 nM; in experiment [4] (setting [9]) it was above 1000 nM; in experiment [5] (setting [10]) it was 100 to 1000 nM; on PRMT5 [6], 50 to 500 nM.

In the case of `C[C@H]1CC[C@H](c2cccc(Cl)c2)N(C(=O)C(=O)Nc2cnc(N)c(C3CC3)c2)C1` (single isomer, unassigned) [Compound 1119], the IC50 was below 1000 nM in experiment [1] (setting [7]); below 50 nM on PRMT5 [2] (read-out: No Cofactor/rel IC50); 50 to 500 nM at PRMT5 [3]; 100 to 1000 nM in experiment [4] (setting [9]); below 100 nM in experiment [5] (setting [12]); below 50 nM on PRMT5 [6]. Further, in experiment [5] (setting [14]), the MTAP intact/deleted ratio entry was “A (an IC50 ratio greater than or equal to 10 fold)”.

Consider `CCc1cc(NC(=O)C(=O)N2C[C@@H](C)CC[C@@H]2c2ccc3sc(C4CCN(C5CC5)CC4)nc3c2)cnc1N` [Compound 1330, N-(6-amino-5-ethylpyridin-3-yl)-2-((2R,5S)-2-(2-(1-cyclopropylpiperidin-4-yl)benzo[d]thiazol-5-yl)-5-methylpiperidin-1-yl)-2-oxoacetamide], for which the IC50 was below 1000 nM in experiment [1] (setting [15]); below 50 nM at PRMT5 [2] (setting [8]); below 50 nM at PRMT5 [3]; below 100 nM in experiment [4] (setting [9]); below 100 nM in experiment [5] (setting [10]); below 50 nM on PRMT5 [6]. The “MTAP intact/deleted ratio” value in experiment [5] (setting [11]) is “A (an IC50 ratio greater than or equal to 10 fold)”.

With `Cc1cc(NC(=O)C(=O)N2C[C@H](C)CC[C@H]2c2ccc3[nH]c(=O)ccc3c2)cnc1N` (racemic) [Compound 671, rac-N-(6-Amino-5-methyl-3-pyridyl)-2-[5-methyl-2-(2-oxo-1H-quinolin-6-yl)-1-piperidyl]-2-oxo-acetamide], the IC50 in experiment [1] (setting [13]) was below 1000 nM; at PRMT5 [2] (read-out: No Cofactor/rel IC50) it was 50 to 500 nM; at PRMT5 [3], 50 to 500 nM; in experiment [4] (setting [9]), 100 to 1000 nM; in experiment [5] (setting [10]) it was below 100 nM; on PRMT5 [6], below 50 nM. The MTAP intact/deleted ratio entry in experiment [5] (setting [11]) is reported as “B (an IC50 ratio greater than or equal to 3 fold but lower than 10 fold)”.

With `Cc1cc(NC(=O)C(=O)N2C[C@@H](C)CC[C@@H]2c2ccc(N(C)C3CCN(C)CC3)nc2)cnc1N` [Compound 1225, N-(6-Amino-5-methyl-3-pyridyl)-2-[(2R,5S)-5-methyl-2-[6-[methyl-(1-methyl-4-piperidyl)amino]-3-pyridyl]-1-piperidyl]-2-oxo-acetamide], the IC50 in experiment [1] (HAP1, read-out: HAP1 MTAP deleted viability) was below 1000 nM; at PRMT5 [2] (read-out: No Cofactor/rel IC50), below 50 nM; at PRMT5 [3], below 50 nM; in experiment [4] (HAP1, read-out: MTAP HAP1 intact IC50), 100 to 1000 nM; in experiment [5] (HAP1, read-out: HAP1 MTAP deleted IC50), below 100 nM; at PRMT5 [6] it was below 50 nM. In addition, the MTAP intact/deleted ratio result in experiment [5] (setting [14]) is “A (an IC50 ratio greater than or equal to 10 fold)”.

Regarding `C[C@@H]1CC[C@@H](c2ccc3[nH]ncc3c2)N(C(=O)C(=O)Nc2cnc(N)c(C3CC3)c2)C1` (single isomer, unassigned) [Compound 1361], the IC50 in experiment [1] (setting [15]) is above 10000 nM; on PRMT5 [2] (setting [8]), above 500 nM; on PRMT5 [3] it was above 500 nM; in experiment [4] (setting [9]), above 1000 nM; in experiment [5] (setting [10]), above 1000 nM; at PRMT5 [6], above 500 nM.

Regarding `CCc1cc(NC(=O)C(=O)N2C[C@@H](C)CC[C@@H]2c2cccc(OC[C@H]3CCN(C)C3)c2)cnc1N` [Compound 1179, N-(6-amino-5-ethylpyridin-3-yl)-2-((2R,5S)-5-methyl-2-(3-(((S)-1-methylpyrrolidin-3-yl)methoxy)phenyl)piperidin-1-yl)-2-oxoacetamide], the IC50 is below 1000 nM in experiment [1] (setting [7]); below 50 nM at PRMT5 [2] (read-out: No Cofactor/rel IC50); below 50 nM at PRMT5 [3]; below 100 nM in experiment [4] (setting [9]); below 100 nM in experiment [5] (setting [12]); below 50 nM on PRMT5 [6]. In addition, the MTAP intact/deleted ratio result in experiment [5] (setting [14]) was “A (an IC50 ratio greater than or equal to 10 fold)”.

Take `CNc1ccc([C@@H]2CC[C@@H](C)CN2C(=O)C(=O)Nc2cnc(N)c(C)c2)cc1` (racemic) [Compound 498, N-(6-amino-5-methyl-3-pyridyl)-2-[(2S,5R)-5-methyl-2-[4-(methylamino)phenyl]-1-piperidyl]-2-oxo-acetamide]: the IC50 in experiment [1] (setting [7]) is below 1000 nM; on PRMT5 [2] (read-out: No Cofactor/rel IC50) it was 50 to 500 nM; on PRMT5 [3], 50 to 500 nM; in experiment [4] (setting [9]), above 1000 nM; in experiment [5] (setting [12]), below 100 nM; on PRMT5 [6], 50 to 500 nM. Also, the MTAP intact/deleted ratio result in experiment [5] (setting [11]) was “A (an IC50 ratio greater than or equal to 10 fold)”.

`CCc1cc(NC(=O)C(=O)N2C[C@@H](C)CC[C@@H]2c2ccc3sc([C@H]4CCCN(C)C4)nc3c2)cnc1N` [Compound 1388, N-(6-amino-5-ethylpyridin-3-yl)-2-((2R,5S)-5-methyl-2-(2-(1-methylpiperidin-3-yl)benzo[d]thiazol-5-yl)piperidin-1-yl)-2-oxoacetamide]: the IC50 is below 1000 nM in experiment [1] (setting [15]); below 50 nM at PRMT5 [2] (setting [8]); below 50 nM on PRMT5 [3]; below 100 nM in experiment [4] (setting [9]); below 100 nM in experiment [5] (setting [10]); below 50 nM on PRMT5 [6]. Besides, in experiment [5] (setting [11]), the “MTAP intact/deleted ratio” value was “A (an IC50 ratio greater than or equal to 10 fold)”.

For the compound `C[C@H]1CC[C@H](c2ccc3c(c2)CCN(C)C3)N(C(=O)C(=O)Nc2cnc(N)c(C3CC3)c2)C1` [Compound 1264, N-(6-Amino-5-cyclopropyl-3-pyridyl)-2-[(2R,5S)-5-methyl-2-(2-methyl-3,4-dihydro-1H-isoquinolin-6-yl)-1-piperidyl]-2-oxo-acetamide], the IC50 was below 1000 nM in experiment [1] (setting [15]); below 50 nM at PRMT5 [2] (setting [8]); 50 to 500 nM at PRMT5 [3]; 100 to 1000 nM in experiment [4] (setting [9]); below 100 nM in experiment [5] (setting [10]); below 50 nM on PRMT5 [6]. For the same compound, in experiment [5] (setting [11]), the “MTAP intact/deleted ratio” value is on record as “A (an IC50 ratio greater than or equal to 10 fold)”.

Consider `CC(=O)N1CCC(c2cccc(C3CCCCN3C(=O)C(=O)Nc3cncc(C)c3)c2)CC1` (stereo not drawn) [Compound 7, 2-(2-(3-(1-acetylpiperidin-4-yl)phenyl)piperidin-1-yl)-N-(5-methylpyridin-3-yl)-2-oxoacetamide], for which the IC50 in experiment [1] (setting [7]) is above 10000 nM; on PRMT5 [2] (setting [8]), above 500 nM; on PRMT5 [3], above 500 nM; in experiment [4] (setting [9]) it was above 1000 nM; in experiment [5] (setting [10]), above 1000 nM; on PRMT5 [6] it was 50 to 500 nM. Also, the “MTAP intact/deleted ratio” value in experiment [5] (setting [11]) was “C (an IC50 ratio of less than 3 fold)”.
